Experiments:
[1] = test system: healthy volunteers; assay: Phase 1 (FLE-001) pulmonary safety: spirometry, SpO2, auscultation, chest x-ray; type: in vivo, human
Protocol: Pulmonary safety was assessed by performing lung spirometry tests and measuring peripheral oxygen saturation (SpO2%) prior to dosing and at various times after completion of the inhalation. Lung spirometry tests evaluated all lung function parameters, including forced vital capacity (FVC), forced expiratory volume in 1 second (FEV1), peak expiratory flow (PEF), and forced expiratory flow at 25% and 75% intervals (FEF25-75). Auscultation and respiration rate were also measured prior to dosing and at various times after inhalation. Chest x-rays were performed on subjects before and after flecainide inhalation.

[2] = test system: pigs with induced atrial fibrillation; assay: Cardioversion of induced AF by IT flecainide, intact porcine model (Example 6); type: in vivo, Yorkshire pigs
Protocol: After 30-min recovery, the alternate intervention was tested. Times for conversion to normal sinus rhythm were compared.

[3] = test system: porcine model; assay: Slow versus rapid IV infusion, porcine model; type: in vivo, pig; details: slow (10 min) vs rapid (2 min) IV infusion
[4] = test system: healthy volunteers; details: in vivo
Protocol: (§1) 3 cohorts of subjects, in total 34 healthy adult volunteers, were recruited for Part A study.
(§2) Part B was an open label non-randomized crossover in a cohort of 6 evaluable healthy adult volunteers.
In addition, the effects of changing posture from semi-recumbent to seated upright, vice-versa and during inhalation on HR and BP were assessed (Cohort 5).

[5] = test system: healthy volunteers; details: both, human, in vivo
From the text: as §1, §2
Adverse events were monitored and recorded.

[6] = Cohort 1, 20 mg eTLD, 3 hours Post-dose
[7] = Cohort 1, 20 mg eTLD, 12 hours Pre-dose
[8] = Cohort 1, 20 mg eTLD, 24 hours Post-dose
[9] = Cohort 2, 40 mg eTLD, 3 hours Post-dose
[10] = Cohort 2, 40 mg eTLD, 12 hours Pre-dose
[11] = Cohort 2, 40 mg eTLD, 24 hours Post-dose

O=C(NCC1CCCCN1)c1cc(OCC(F)(F)F)ccc1OCC(F)(F)F (centres unmarked) [flecainide]
Oxygen Saturation (SpO2%), mean ([1]; Cohort 1, 20 mg eTLD, 15 min Postdose): 97%
Oxygen Saturation (SpO2%), mean ([1]; Cohort 1, 20 mg eTLD, 30 min Postdose): 97%
Oxygen Saturation (SpO2%), mean ([1]; Cohort 1, 20 mg eTLD, 45 min Postdose): 97%
Oxygen Saturation (SpO2%), mean ([1]; Cohort 1, 20 mg eTLD, 60 min Postdose): 97%
Oxygen Saturation (SpO2%), mean ([1]; Cohort 1, 20 mg eTLD, 75 min Postdose): 98%
Oxygen Saturation (SpO2%), mean ([1]; Cohort 1, 20 mg eTLD, 90 min Postdose): 98%
Oxygen Saturation (SpO2%), mean ([1]; Cohort 1, 20 mg eTLD, 105 min Postdose): 97%
Oxygen Saturation (SpO2%), mean ([1]; Cohort 1, 20 mg eTLD, 120 min Postdose): 98%
FEF25-75, mean [1, 6]: 5.48 L/s
FEV1, mean [1, 6]: 5.27 L
FVC, mean [1, 6]: 6.42 L
PEF, mean [1, 6]: 10.87 L/s
FEF25-75, mean [1, 7]: 5.38 L/s
FEV1, mean [1, 7]: 5.26 L
FVC, mean [1, 7]: 6.02 L
PEF, mean [1, 7]: 11.30 L/s
FEF25-75, mean [1, 8]: 5.40 L/s
FEV1, mean [1, 8]: 5.18 L
FVC, mean [1, 8]: 6.36 L
PEF, mean [1, 8]: 11.09 L/s
Oxygen Saturation (SpO2%), mean ([1]; Cohort 1, 20 mg eTLD, Predose): 98%
Oxygen Saturation (SpO2%), mean ([1]; Cohort 2, 40 mg eTLD, 15 min Postdose): 96%
Oxygen Saturation (SpO2%), mean ([1]; Cohort 2, 40 mg eTLD, 30 min Postdose): 97%
Oxygen Saturation (SpO2%), mean ([1]; Cohort 2, 40 mg eTLD, 45 min Postdose): 96%
Oxygen Saturation (SpO2%), mean ([1]; Cohort 2, 40 mg eTLD, 60 min Postdose): 96%
Oxygen Saturation (SpO2%), mean ([1]; Cohort 2, 40 mg eTLD, 75 min Postdose): 97%
Oxygen Saturation (SpO2%), mean ([1]; Cohort 2, 40 mg eTLD, 90 min Postdose): 97%
Oxygen Saturation (SpO2%), mean ([1]; Cohort 2, 40 mg eTLD, 105 min Postdose): 97%
Oxygen Saturation (SpO2%), mean ([1]; Cohort 2, 40 mg eTLD, 120 min Postdose): 97%
FEF25-75, mean [1, 9]: 4.34 L/s
FEV1, mean [1, 9]: 4.96 L
FVC, mean [1, 9]: 6.19 L
PEF, mean [1, 9]: 10.66 L/s
FEF25-75, mean [1, 10]: 5.00 L/s
FEV1, mean [1, 10]: 5.04 L
FVC, mean [1, 10]: 6.18 L
PEF, mean [1, 10]: 10.83 L/s
FEF25-75, mean [1, 11]: 4.80 L/s
FEV1, mean [1, 11]: 5.08 L
FVC, mean [1, 11]: 6.39 L
PEF, mean [1, 11]: 11.14 L/s
Oxygen Saturation (SpO2%), mean ([1]; Cohort 2, 40 mg eTLD, Predose): 97%
respiratory rate ([1]; Cohorts 1, 2, 3, 5): minimal or no changes
standard lung spirometry measurements and peripheral O2 saturation ([1]; Cohorts 1, 2, 3, 5): normal before and after
SpO2 pre-dose and post-dose values ([1]; Cohorts 1 and 2): 97-98%
lung function parameters (FVC, FEV1, PEF, FEF25-75) pre-dose and post-dose ([1]; Cohorts 1 and 2): within the normal range for the population studied
Auscultation ([1]; inhaled 20, 30, 40 mg eTLD): normal
Chest x-rays ([1]; inhaled 20, 30, 40 mg eTLD): normal and showed no changes
respiration rate ([1]; inhaled 20, 30, 40 mg eTLD): No changes
reduction of AF duration ([2]; IT 0.75 mg/kg vs no-drug): 50%
time to conversion of AF to normal sinus rhythm ([2]; IT 0.75 mg/kg, n=3, no-drug 16.2±0.9): 8.1 ± 1.0 min
AF conversion in representative electrograms, time after IT flecainide ([2]; IT 1.5 mg/kg (FIG. 65)): 5 min
shortening in AF duration ([2]; IT 1.5 mg/kg vs no drug): 72%
time to conversion of AF to normal sinus rhythm (mean±SEM) ([2]; IT 1.5 mg/kg, n=5, no drug 12.3±1.9 min): 3.4 ± 0.3 min
dominant frequency of AF ([2]; IT 0.75 and 1.5 mg/kg): reduced the dominant frequency of AF
relation of AF duration to dose ([2]; IT 0.75 and 1.5 mg/kg): AF duration correlated with flecainide dose
time for plasma concentration to reach levels required for conversion ([2]; IT 0.75 and 1.5 mg/kg (FIG. 66A)): ≤ 10 min
MAP and ventricular rate after conversion ([2]; IT 1.5 or 0.75 mg/kg): restored MAP and ventricular rate to baseline values
effectiveness in rapidly converting AF to normal sinus rhythm ([2]; IT 1.5 or 0.75 mg/kg): 100%
correlation of venous plasma levels with QRS duration [3]: positively correlated with QRS duration
pH of solution in water (2.6 mg/mL solution): 5.0
appearance of solution (diltiazem hydrochloride 50 mg/ml, flecainide acetate 30 mg/ml in distilled water): clear with no visible particulate matter
dose dependence of magnitude of HR increases [4]: not dose-dependent
magnitude of blood pressure changes vs placebo [4]: similar
HR ([4]; iv, 2 mg/kg): An increase in HR was observed
systolic and diastolic BP ([4]; iv, 2 mg/kg): Decreases in systolic and diastolic BP
Adverse Event: Cough [5]: 1
Adverse Event: Lightheadedness [5]: 1
Number of Moderate or Severe TEAEs [5]: 3
Number of Study Drug Related TEAEs [5]: 43
Number of Study Drug Related, Moderate or Severe TEAEs [5]: 2
Number of TEAEs [5]: 59
Subjects with at least one Moderate or Severe TEAE [5]: 2 (8) n (%)
Subjects with at least one Study Drug Related TEAE [5]: 22 (80) n (%)
